Measurements as given in patent US9695200B2, “Heterocyclic ITK inhibitors for treating inflammation and cancer” (Confluence Life Sciences, Inc., priority 2015, dated 2017).

Tests used:
[1] = target: ITK (Homo sapiens (Human), UniProt Q08881); experiment: ITK inhibitor binding potency (LanthaScreen competitive binding assay); settings: TR-FRET tracer-236 displacement, 10 nM ITK; pre-incubation condition not given; read-out: ITK Inhibition IC50
From the text: The ability of candidate compounds to interact with ITK is quantitated by a competitive binding assay using the LanthaScreen technology developed by Life Technologies. This assay is based on the binding of a proprietary, Alexa Fluor® 647-labeled, ATP-competitive kinase inhibitor (kinase tracer-236) to the ITK expression construct in the presence of a Europium-conjugated antibody, resulting in a FRET (fluorescence resonance energy transfer) signal. Displacement of the kinase tracer by compound results in a lower emission ratio upon excitation of the Europium chelate. Candidate compounds are designed as potential irreversible inhibitors of ITK, capable of ligating to an active site cysteine residue resulting in time dependent covalent binding. The time dependent nature of irreversible inhibition is investigated by performing the binding assay with and without a pre-incubation of compound and ITK. […] The inhibitory potency of candidate compounds is measured in 20 mM HEPES pH 7.5, 10 mM MgCl2, 0.01% BSA, 0.0005% Tween-20, and 2% DMSO in the presence of 10 nM ITK, 2 nM Eu-anti-GST antibody, and 50 nM kinase tracer-236 using a 384-well plate format. Background signal is defined in the absence of ITK and uninhibited signal is defined in the presence of vehicle (2% DMSO) alone. Compounds were evaluated in an 11 point dose-response ranging from 20 uM to 0.34 nM. The binding assays are performed under two preincubation conditions to evaluate time dependence of inhibition. For the pre-incubation assay, ITK and Eu-anti-GST antibody are pre-incubated with compound or vehicle for two hours prior to the addition of kinase tracer. The non-preincubated assay is run under conditions where ITK and Eu-anti-GST antibody are added to a mixture of compound and kinase tracer. IC50 values of compounds are determined using a 4 parameter logistical fit of emission ratio as a function of the concentration of compound.

[2] = tested on: phospho-PLCγ1 in Jurkat cells; experiment: ITK target modulation PLC-γ assay (phospho-PLCγ1, αCD3-stimulated Jurkat cells); assay type: cell-based, human; settings: Homo sapiens, 1 hour compound incubation, αCD3 Dynabeads stimulation 8 minutes, MSD phospho-PLCγ1, read-out: PLC-γ Inhibition IC50

Chain of ITK (Q08881 whole entry): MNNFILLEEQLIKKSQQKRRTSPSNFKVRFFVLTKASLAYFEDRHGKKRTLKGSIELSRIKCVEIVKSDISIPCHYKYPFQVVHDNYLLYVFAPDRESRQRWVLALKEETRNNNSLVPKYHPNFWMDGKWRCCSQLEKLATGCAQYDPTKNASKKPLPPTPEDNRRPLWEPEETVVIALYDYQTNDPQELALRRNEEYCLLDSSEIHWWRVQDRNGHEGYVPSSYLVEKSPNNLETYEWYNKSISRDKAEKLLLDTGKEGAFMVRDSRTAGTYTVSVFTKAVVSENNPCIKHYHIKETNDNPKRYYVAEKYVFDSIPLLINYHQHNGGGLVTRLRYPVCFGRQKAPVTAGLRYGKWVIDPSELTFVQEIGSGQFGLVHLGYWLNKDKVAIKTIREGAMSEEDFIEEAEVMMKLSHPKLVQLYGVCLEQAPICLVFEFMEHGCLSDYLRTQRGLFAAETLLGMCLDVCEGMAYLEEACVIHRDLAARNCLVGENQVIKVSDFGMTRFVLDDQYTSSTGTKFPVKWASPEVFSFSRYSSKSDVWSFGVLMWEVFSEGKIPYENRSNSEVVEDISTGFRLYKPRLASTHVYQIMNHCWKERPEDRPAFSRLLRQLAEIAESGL

| Structure (SMILES) | IC50 [1] [µM] | IC50 [2] [µM] |
| --- | --- | --- |
| O=C(/C=C/CN1CCOCC1)Nc1cccc(-c2cnc3[nH]cc(-c4ccncc4)c3c2)c1 [Example 23, (E)-4-morpholino-N-(3-(3-(pyridin-4-yl)-1H-pyrrolo[2,3-b]pyridin-5-yl)phenyl)but-2-enamide] | ≤ 1 | 1 to 5 |
| C=C(C)C(=O)Nc1cccc(-c2cnc3[nH]cc(-c4ccnc(OC)c4)c3c2)c1 [Example 81, N-(3-(3-(2-methoxypyridin-4-yl)-1H-pyrrolo[2,3-b]pyridin-5-yl)phenyl)meth-acrylamide] | > 1 | > 5 |
